Source: patent publication US20230313181A1, “HISTIDINE-LYSINE POLYMERS AND METHODS FOR DELIVERING MRNA USING THE SAME” (UNIVERSITY OF MARYLAND, BALTIMORE, priority 2019, published 2023)
Bridges are numbered along the chain shown (N, C = ends). Roman numbers before positions name the chains, in order. Where no end group is shown, it is not given here.

Tests used:
[1] = Cell viability assay (trypan blue exclusion); type: cell-based; settings: human, MDA-MB-231 cells, HK polymer 4 μg or polyplex (4 μg HK; 1 μg mRNA), then 19 h DMEM/10% FBS
Method: Cell Viability Assay. MDA-MB-231 cells were seeded at 5.0×10^4/well in a 24-tissue culture plate and incubated overnight in DMEM supplemented with 10% FBS serum. The media was then changed to Opti-MEM and the cells were treated with either the HK polymer (4 μg) or the HK polyplex (4 μg HK; 1 μg mRNA) for 5 h. After the media was changed to DMEM/10% FBS for 19 h, the cell viability was measured using the trypan blue cell exclusion assay (Trypan Blue solution, 0.4%, Sigma-Aldrich, St. Louis, MO).
After the medium was changed to Opti-MEM in cell cultures of the MDA-MB-231 cells used in the experiment described above, either the HK polymer (4 μg) or the HK polyplex (4 μg HK; 1 μg mRNA) was added dropwise to the cells and incubated for 5 h. The media was then changed to DMEM/10% FBS for 19 h and cell viability was determined using the trypan cell exclusion assay.

[2] = Particle size, polydispersity index (PDI) and zeta potential of polyplexes (Zetasizer); type: physicochemical
Method: Particle size, polydispersity index (PDI), and zeta potential. The size, PDI, and zeta potential were determined with the Zetasizer (Malvern, Westborough, Mass.) and analyzed with software provided by the instrument manufacturer (Zetasizer software, version 6.2). Using dynamic light scattering at a 90° angle, the size of the particles were reported as the Z-average diameter from the intensity-weighted size distribution. Prior to the measurements, the samples were equilibrated to 25° C. for 2 min. Each measurement had at least ten sub-runs under the automatic mode of the software. The particle size, PDI, and zeta potential data point represent the mean±SD of three measurements. After mixing HK peptides (4 μg) and mRNA (1 μg) in 100 μl of defined media (Opti-MEM, water, or DMEM/8% FBS) for 30 min, 100 μl of additional defined media was added to the polyplex solution (total volume 200 μl) to measure the size and PDI. To determine the zeta potential, 800 μl more of the media was added (total volume 1000 μl), mixed gently, and then added to the disposable zeta cell.
Because different stabilities were observed between the H3K4b and H3K(+H)4b polyplexes, whether the sizes of these polyplexes varied based on the media in which they were prepared was investigated. […] H3K(+H)4b and H3K4b peptides (4 μg) in complex with mRNA (1 μg) were mixed with either Opti-MEM, water, or DMEM/8% FBS […]. After 1 h, the size, PDI, and zeta potential were measured.

[3] = Acid-base titration of HK polymer solutions; type: physicochemical; settings: pH titration curves, 5 mg/ml
Method: FIG. 2. Titration of different HK peptide solutions. Solutions of polymers (5 mg/ml) (H2K4b, H3K4b, H3K(+H)4b, and H4K4b) were adjusted to pH 3 (initial volume—1 ml) and then […] aliquots of 0.05 N NaOH were stepwise added and the pH measured.
Acid-Base Titration. After polymer solutions (e.g. containing one or more of H2K4b, H3K4b, H3K(+H)4b, and H4K4b) were adjusted to pH 3.0 (5 mg/mil; initial volume—1 mil), aliquots (5 μl) of NaOH (0.05 N) were stepwise added with the pH measured (FiveEasy™ meter; InLab Solids Pro-ISM pH electrode, Mettler Toledo, Columbus, OH). Titration was stopped at about pH 9.0.

[4] = polyplex HK 4 μg:mRNA 1 μg in DMEM/8% FBS
[5] = polyplex HK 4 μg:mRNA 1 μg in Opti-MEM
[6] = polyplex HK 4 μg:mRNA 1 μg in Water

I: KHHHKHHHKHHHHKHHHKKKK-NH2 / II: KHHHKHHHKHHHHKHHHK / III: KHHHKHHHKHHHHKHHHK / IV: KHHHKHHHKHHHHKHHHK (amide I:19-IV:C, I:20-III:C, I:21-II:C) [H3K(+H)4b]
viability at 5 h [1]: 96.3%
PDI [2, 4]: 0.307
Size [2, 4]: 289 ± 38.2 nm
Zeta Potential [2, 4]: −12.7 ± 1.04 mV
PDI [2, 5]: 0.362
Size [2, 5]: 1004 ± 61.1 nm
Zeta Potential [2, 5]: 2.92 ± 1.83 mV
PDI [2, 6]: 0.212
Size [2, 6]: 234.9 ± 2.7 nm
Zeta Potential [2, 6]: 20.77 ± 1.12 mV
buffering profile / buffering capacity (in words) [3]: minimal differences in their buffering profile
